Test results as given in US4605661A, “Aromastase inhibiting α,α-diarylimidazole-4(5)-propionitriles, α,α-diarylimidazole-4(5)-propionamides, and 4(5)-(2,2-diarylethyl)imidazoles” (Eli Lilly and Company, priority 1984, dated 1986).
Structures can show the parent of a compound that is named as a salt. Where two headings read alike, the source gives them in different places.

Experiments:
aromatase = target: T1, aromatase (Rattus norvegicus, UniProt P22443); test: Aromatase inhibition in the rat ovarian microsome assay; type: biochemical
T1 construct: ovarian microsomes are obtained from rats treated with pregnant mares serum gonadotropin; from tissue; host or cells: ovarian microsomes from rats treated with pregnant mares serum gonadotropin
T1 sequence (P22443 1-508): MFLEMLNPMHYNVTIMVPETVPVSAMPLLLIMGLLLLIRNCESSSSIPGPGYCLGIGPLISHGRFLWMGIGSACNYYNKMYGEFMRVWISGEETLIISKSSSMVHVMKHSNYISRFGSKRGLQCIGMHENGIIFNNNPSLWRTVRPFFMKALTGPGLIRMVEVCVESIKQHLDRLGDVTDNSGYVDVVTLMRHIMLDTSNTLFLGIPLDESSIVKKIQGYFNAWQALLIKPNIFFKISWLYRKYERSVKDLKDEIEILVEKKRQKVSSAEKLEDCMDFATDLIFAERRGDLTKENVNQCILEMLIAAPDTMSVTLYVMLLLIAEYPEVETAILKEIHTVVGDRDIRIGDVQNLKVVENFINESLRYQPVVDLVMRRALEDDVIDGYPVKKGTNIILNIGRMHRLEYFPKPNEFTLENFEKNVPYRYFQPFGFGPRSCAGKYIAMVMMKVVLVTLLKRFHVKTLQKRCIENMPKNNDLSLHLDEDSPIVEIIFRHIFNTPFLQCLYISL
Description: In this test system, ovarian microsomes are obtained from rats treated with pregnant mares serum gonadotropin. Test compounds are added to reaction vials containing 0.1 μM 4-androstene-3,17-dione, 100,000 dpm 1,2[^3 H]-androstenedione, the microsomes and a NADPH generating system. The concentrations of the inhibitors tested ranged between 0.005 and 10 μM.

breast cancer = conditions: Cancer Research, Vol. 42, Suppl. 8:3261s (1982); cited from earlier work
aromatization [1] = test: Estrogen synthesis inhibition in rats: uterine weight; type: in vivo, rat (immature female Wistar); conditions: 7 days, testosterone propionate treated
Description: (§1) Immature female Wistar rats (45-55 grams) were divided into control and test groups of 4-8 animals each. Test compounds were administered for seven days as a component of the diet. Control animals received diet without the test compound. Beginning on the fourth day of the test, all animals treated with the test compound and one half of the control animals were given a subcutaneous injection of 1.0 mg of testosterone propionate in corn oil. The remaining control animals received only an equivalent volume of corn oil. On the seventh day of the test, rats treated with testosterone propionate were injected subcutaneously with 100 μCi of [^3 H]-testosterone in 50 μl of 3:1 (v/v) saline-ethanol.
After two hours, the animals were killed by decapitation. Uteri were isolated, trimmed of extraneous connective tissue, and weighed. […] In the control animals treated with testosterone propionate, estrogens produced by aromatization stimulated the uterus resulting in an increase in weight.

aromatization [2] = test: Estrogen synthesis inhibition in rats: ovarian steroid concentrations; type: in vivo, rat (immature female Wistar); conditions: ovary, 7 days
Description: as §1
Ovaries from rats treated with [^3 H]-testosterone were excised, cleaned of extraneous tissue, and homogenized in 2.5 ml of a 1.0 mM potassium phosphate buffer containing 3.0 mM MgCl2.6H2 O, 320 mM sucrose, and 0.25% Triton X-100 (polyethylene glycol p-isooctyl phenyl ether, Rohm and Hass) at pH 6.5. The ovarian steroids were extracted with 1.5 ml of 9:1 (v/v) toluene/ethanol to which had been added 25 to 100 mcg each of unlabelled estradiol, estriol, and estrone, and approximately 1000 dpm of [^14 C]-estradiol. The samples were vortexed, centrifuged at 500×g for 10 minutes, and the organic phase was transferred to a conical vial. Two additional extractions were performed on the residue in the same way. The pooled organic extracts were evaporated for subsequent thin-layer chromatography.
Ovarian proteins were precipitated by the addition of 5.0 ml of ethanol to the remaining aqueous phase. After an overnight incubation at 4° C., the samples were centrifuged at 1500×g for 10 minutes. The supernatant was discarded and the pellet was dissolved in 0.3N potassium hydroxide. Protein was determined according to the method of Bradford, Analytical Biochemistry, 72, 248 (1976).
The organic residue from each above extraction was redissolved in 9:1 (v/v) dichloromethane/methanol. The solution of each sample was applied to separate silica gel thin layer chromatography plates which contained a fluorescent indicator. The plates were developed in the first dimension with 160:38:1.5:0.5 (v/v/v/v) dichloromethane/ethyl acetate/methanol/acetic acid to within 3 cm of the top of the plate. After air-drying, the plate was developed in the second dimension with 180:19:1 (v/v/v) dichloromethane/methanol/ammonium hydroxide. The plate was air-dried and viewed under 254 nm UV light.
The visible spots were marked and the plates were sprayed with primulin (0.001% in 4:1 v/v acetone/water) according to the method of Wright, J. Chromatography, 59, 220 (1971) which allowed for the identification of additional steroids under 365 nm UV light. The spots were scraped from the plate using a glass wool plugged Pasteur pipet attached to a vacuum line. The steroids were eluted directly into scintillation vials by the addition of 0.2 ml of dichloromethane followed by two washes each of 2.0 ml of methanol. The organic solvent was evaporated and 10.0 ml of scintillation fluid (Beckman Ready Solv-NA) was added to the vials. Samples were analyzed by liquid scintillation spectrometry. Corrections were made based on the recoveries of the [^14 C]-steroid. Steroid concentrations are expressed as femtomoles per milligram protein.

[3] = tested on: DMBA-induced mammary tumors; test: DMBA-induced mammary tumor inhibition; type: in vivo, rat (female Sprague-Dawley); conditions: Test I, 20 mg/kg, once daily by gavage in corn oil
Description: Mammary tumors were produced in female Sprague-Dawley rats which were 50-60 days old by the gavage administration of 20 mg of 7,12-dimethylbenz[α]anthracene (DMBA). About six weeks after DMBA administration, the mammary glands were palpated at weekly intervals for the appearance of tumors. Whenever one or more tumors appeared and were measurable in an animal, that animal was selected for experimentation. […] Each control and test group contained 8 animals. The test compound was administered in corn oil and administered once daily by gavage.
Every experiment included a group of control rats having tumors that were given corn oil vehicle by gavage. […] The area of each tumor was calculated by multiplying the shortest and longest diameters of the tumor. The treatment and measurement of animals continued for five weeks at which time the final areas of the tumors were determined. The change in the mean tumor area was determined, and the means change was analyzed for its significance using Dunnett's t-test.

[4] = rat ovarian microsomes, substrate (androstenedione) 0.1 μM, read-out: EC50 (concentration required to achieve 50% inhibition of aromatase activity)
[5] = Test I, 30 ppm in feed (approx. 3 mg/kg/day)
[6] = Test I, 300 ppm in feed (approx. 30 mg/kg/day)
[7] = Test II, 200 ppm in feed (approx. 20 mg/kg/day)

SMILES: c1ccc(C(Cc2c[nH]cn2)c2ccccc2)cc1 [4(5)-(2,2-diphenylethyl)imidazole, 4(5)-(2,2-Diphenylethyl)imidazole]
- EC50 (aromatase): 94 nM

SMILES: CCC1(c2ccc(N)cc2)CCC(=O)NC1=O (centres unmarked) [aminoglutethimide]
- effect in treatment of breast cancer (breast cancer): beneficial effect

SMILES: C[C@]12C=CC(=O)C=C1CC[C@@H]1[C@@H]2CC[C@]2(C)OC(=O)CC[C@@H]12 [testolactone]
- effect in treatment of breast cancer (breast cancer): beneficial effect

SMILES: NC(=O)C(Cc1c[nH]cn1)(c1ccc(Cl)cc1)c1ccc(Cl)cc1 [α,α-Bis(4-chlorophenyl)-1H-imidazole-4(5)-propionamide hydrochloride]
- EC50 (aromatase; [4]): < 50 nM

SMILES: NC(=O)C(Cc1c[nH]cn1)(c1ccccc1)c1ccccc1 [α,α-Diphenylimidazole-4-propionamide hydrochloride]
- EC50 (aromatase; [4]): 118 nM

SMILES: N#CC(Cc1c[nH]cn1)(c1ccc(Cl)cc1)c1ccc(Cl)cc1 [α,α-bis(4-chlorophenyl)-imidazole-4(5)-propionitrile, maleic acid salt]
- EC50 (aromatase; [4]): 62 nM
- Mean Uterine Weight (aromatization [1]; Test I, 30 ppm in feed (approx. 3 mg/kg/day), 4 animals): 166.0 mg
- Mean Uterine Weight (aromatization [1]; Test I, 300 ppm in feed (approx. 30 mg/kg/day), 5 animals, + p < 0.05 vs testosterone-treated control): 141.6 mg
- Mean Steroid Concentration, estradiol (aromatization [2]; [5]): 1.36 femtomoles per milligram of protein
- Mean Steroid Concentration, estriol (aromatization [2]; [5]): 0.72 femtomoles per milligram of protein
- Mean Steroid Concentration, estrone (aromatization [2]; [5]): 0.11 femtomoles per milligram of protein
- Mean Steroid Concentration, estradiol (aromatization [2]; [6]): 1.06 femtomoles per milligram of protein
- Mean Steroid Concentration, estriol (aromatization [2]; [6]): 0.23 femtomoles per milligram of protein
- Mean Steroid Concentration, estrone (aromatization [2]; Test I, 300 ppm in feed (approx. 30 mg/kg/day), + p < 0.05 vs testosterone-treated control): 0.00 femtomoles per milligram of protein
- Mean Tumor Area, Finish ([3]; 5 weeks, control 78.3 to 980.8, + p < 0.05 vs control): 389.7 mm^2
- Mean Tumor Area, Start ([3]; start of test (baseline)): 67.0 mm^2

SMILES: N#CC(Cc1c[nH]cn1)(c1ccccc1)c1ccccc1 [α,α-diphenylimidazole-4(5)-propionitrile, maleic acid salt]
- EC50 (aromatase; [4]): 165 nM

SMILES: N#CC(Cc1c[nH]cn1)(c1ccccc1)c1cccc(Cl)c1 (stereo not drawn) [α-(3-chlorophenyl)-α-phenyl-imidazole-4(5)-propionitrile hydrochloride]
- EC50 (aromatase; [4]): 78 nM

SMILES: N#CC(Cc1c[nH]cn1)(c1ccccc1)c1ccc(Cl)cc1 (stereo not drawn) [α-(4-chlorophenyl)-α-phenyl-imidazole-4(5)-propionitrile, maleic acid salt]
- EC50 (aromatase): 72 nM

SMILES: COc1ccc(C(C#N)(Cc2c[nH]cn2)c2ccccc2)cc1 (stereo not drawn) [α-(4-methoxyphenyl)-α-phenyl-imidazole-4(5)-propionitrile, maleic acid salt]
- EC50 (aromatase; [4]): 180 nM

SMILES: N#CC(Cc1c[nH]cn1)(c1ccccc1)c1cccnc1 (stereo not drawn) [α-[1-imidazol-4(5)-ylmethyl]-α-phenyl-3-pyridineacetonitrile dihydrochloride]
- EC50 (aromatase; [4]): 560 nM

SMILES: N#CC(Cc1c[nH]cn1)(c1ccccc1)c1ccc(C(F)(F)F)cc1 (stereo not drawn) [α-phenyl-α-(4-trifluoromethylphenyl)-1H--imidazole-4(5)-propionitrile]
- EC50 (aromatase; [4]): 73 nM
- Mean Uterine Weight (aromatization [1]; Test II, 200 ppm in feed (approx. 20 mg/kg/day), 5 animals, + p < 0.05 vs testosterone-treated control): 142.2 mg
- Mean Steroid Concentration, estradiol (aromatization [2]; [7]): 1.01 femtomoles per milligram of protein
- Mean Steroid Concentration, estriol (aromatization [2]; [7]): 0.31 femtomoles per milligram of protein
- Mean Steroid Concentration, estrone (aromatization [2]; [7]): 0.00 femtomoles per milligram of protein
